Data from PMC8620685, “Effect of Selected Silyl Groups on the Anticancer Activity of 3,4-Dibromo-5-Hydroxy-Furan-2(5H)-One Derivatives” (Pharmaceuticals, 2021).
Like-named read-outs stand apart in the source and are kept apart here.

Legend:
HT-29 = assay: MTT assay, HT-29; type: cell-based; details: Homo sapiens, read-out: IC50 (cytotoxicity), HT-29
Experimental: (§1) The in vitro antitumor activities of the MBA and its derivatives (Table 2) were assayed against a panel of human cancer cell lines (HCT116, HCT-116 ^−/−p53, HT-29, MCF-7, SJSA-1, U2OS, HepG2 and Hep3B) using the MTT assay. As a reference drug we used 5-fluorouracil (5-FU). […] On the basis of in vitro antiproliferative activities, compounds 3b and 3c were selected for further mechanistic studies in the HCT-116 cell line.
(§2) Human cells lines: colon cancer (HCT-116 wt, HT-29), non-small lung carcinoma (A549), and bronchial epithelial cells (BEAS-2B) were obtained from American Type Culture Collection (ATCC, Manassas, VA, USA). Isogenic cell line HCT 116 p53^−/− (deleted both p53 alleles) were a gift from Dr. Bert Vogelstein. Other cell lines, namely MCF-7, SJSA-1, U2OS, HepG2, and Hep3B were received from the collection stored at Centre of Biotechnology of Silesian University of Technology. All cells were grown in DMEM with a high glucose medium (Sigma-Aldrich, Taufkirchen, Germany) supplemented with 10% (v/v) inactivated fetal bovine serum (FBS) (EURx, Gdańsk, Poland) and 1% antibiotics (10,000 μg/mL of streptomycin and 10,000 units/ml of penicillin) (Sigma-Aldrich, Taufkirchen, Germany) at 37 °C in humidified 5% CO2. The maximum concentration of DMSO in the culture media was 0.4%.
(§3) 5 × 10^3 cells per well for the MCF-7 cell line and 2.5 × 10^3 cells per well for the other cell lines were seeded in 96-well plates to adhere for 24 h. Afterward, the cells were treated with tested compounds. After 72 hours of incubation, 50 μL 0.5 mg/ml solution of MTT (3-(4,5-dimethylthiazol-2-yl)-2,5-diphenyl-2H-tetrazolium bromide) were added to each well and the plates were incubated for 3 h at 37 °C. Next, the MTT solution was removed from the plates and formed formazan crystals were dissolved in 2-propanol (Avantor Performance Materials, Gliwice, Poland) containing 0.04 M hydrochloric acid (Avantor Performance Materials, Gliwice, Poland). The absorbance was measured at 570 nm wavelength using a multiwall plate reader (BioTek, Winooski, VT, USA). The experiment was performed at a minimum of 3 independent replicates. Cell viability was set as a percentage versus vehicle control. IC50 was defined as a concentration of a drug that decreased cell viability by 50% relative to the untreated control.

MCF-7 = assay: MTT assay, MCF-7; type: cell-based, human
Experimental: as §1, §2, §3

HCT 116 p53−/− = assay: MTT assay, HCT 116 p53−/−; type: cell-based; details: Homo sapiens, read-out: IC50 (cytotoxicity), HCT 116 p53−/−
Experimental: as §1, §2, §3

U2OS = assay: MTT assay, U2OS; type: cell-based; details: Homo sapiens, MTT, 72 h incubation, read-out: IC50 (cytotoxicity), U2OS
Experimental: as §1, §2, §3

HCT 116 wt = assay: MTT assay, HCT 116 wt; type: cell-based, human
Experimental: as §1, §2, §3

HepG2 = assay: MTT assay, HepG2; type: cell-based; details: Homo sapiens, HepG2; MTT, 72 h incubation; read-out: IC50 (cytotoxicity), HepG2
Experimental: as §1, §2
as §3, with “The experiment was performed at a minimum of 3 independent replicates. Cell viability was set as a percentage versus vehicle control. IC50 was defined as a concentration of a drug that decreased cell viability by 50% relative to the untreated control.” left out

Hep3B = assay: MTT assay, Hep3B; type: cell-based; details: Homo sapiens, MTT, 72 h incubation, read-out: IC50 (cytotoxicity), Hep3B
Experimental: as §1, §2, §3

[1] = MTT assay, normal bronchial epithelium cell line BEAS-2B; type: cell-based; details: human, BEAS-2B cells (noncancerous bronchial epithelial cells); MTT, 72 h incubation; noncancerous cells; read-out: IC50 (cytotoxicity), BEAS-2B
Experimental: (§4) One of the major drawbacks of currently used anticancer drugs is their low selectivity, which often leads to undesired side effects that may be harmful to patients. Overcoming this challenging task requires special attention at the pre-clinical development level. To check whether silyl group incorporation may affect the selectivity of compounds towards cancer cells, MBA and all its new silyl derivatives were tested for their efficacy on noncancerous BEAS-2B and cancerous A549 cells line. […] In contrast, compounds 3a and 3d were more cytotoxic to A549 cells with SI values 6.05 and 1.72, respectively. Strikingly, those two compounds have similar cLogP values 3.08 and 3.22, respectively.
as §2, §3

HCT-116 cells = assay: Annexin V-FITC/PI apoptosis assay; type: cell-based, human; details: HCT-116, statement in discussion
Experimental: To verify this thesis, we utilized annexin-V/PI double staining of cells, which were subsequently subjected to flow cytometric analysis.
The HCT 116 cells were seeded in 6-well plate (Nunc, ThermoFisher, Waltham, MA, USA) at a density of 5 × 10^4 cells/well and allowed to attach. After 24 h the medium was replaced with tested compounds. The cells were then incubated for 24 h at 37 °C. Next, both floating and adherent cells were harvested and centrifuged at 600× g. The cells were washed with PBS (phosphate buffered saline) (Sigma-Aldrich, Taufkirchen, Germany) and we followed instructions from the manufacturer of the Annexin V-FITC Apoptosis Detection Kit (Biotool, Jupiter, FL, USA). Fluorescence was measured using a Becton Dickinson FACS Aria III sorter (BD Company, San Diego, CA, USA). Experiments were repeated at least twice. Data were analyzed using FCE Express 7 Software (DeNovo Software, Pasadena, CA, USA).

A549 = assay: MTT assay, NSCLC cell line A549; type: cell-based, human; details: for IC50: Homo sapiens, A549, MTT, 72 h incubation, read-out: IC50 (cytotoxicity), A549; for SI: selectivity, A549 versus BEAS-2B
Experimental: as §4, §2, §3

SJSA-1 = assay: MTT assay, SJSA-1; type: cell-based; details: Homo sapiens, SJSA-1; MTT, 72 h incubation; read-out: IC50 (cytotoxicity), SJSA-1
Experimental: as §1, §2, §3

[2] = Homo sapiens, MCF7, 72 h, read-out: IC50 (cytotoxicity), MCF-7, MTT, 72 h incubation
[3] = Homo sapiens, HCT-116, 72 h, read-out: IC50 (cytotoxicity), HCT 116 wt, MTT, 72 h incubation

Compound | IC50 (HT-29; HT-29, MTT, 72 h incubation) [µM] | IC50 (MCF-7; Homo sapiens, MCF7, 72 h, MTT, 72 h incubation, read-out: IC50 (cytotoxicity), MCF-7) [µM] | IC50 (HCT 116 p53−/−; HCT-116, MTT, 72 h incubation) [µM] | IC50 (U2OS) [µM] | IC50 (HCT 116 wt; Homo sapiens, HCT-116, 72 h, MTT, 72 h incubation, read-out: IC50 (cytotoxicity), HCT 116 wt) [µM] | IC50 (HepG2) [µM] | IC50 (Hep3B) [µM] | IC50 at 72 h [1] [µM] | induction of apoptosis / cell death in HCT-116 (HCT-116 cells) | IC50 (HT-29; HT-29, 72 h) [µM] | IC50 (MCF-7; [2]) [µM] | IC50 (HCT 116 p53−/−; HCT-116, 72 h) [µM] | IC50 (HCT 116 wt; [3]) [µM] | IC50 (HCT 116 wt; human, 72 h) [µM] | IC50 (A549) [µM] | SI (A549) | IC50 (SJSA-1) [µM] | IC50 (MCF-7; human, 72 h) [µM]
O=c1[nH]cc(F)c(=O)[nH]1 [5FU, 5-fluorouracil, reference compound] | 32.8 ± 4.7 | 29.7 ± 1.4 | 13.4 ± 1.5 | 89.8 ± 2.1 | 6.3 ± 1 |  |  |  |  |  |  |  |  |  |  |  |  | 
CC(C)(C)[Si](C)(C)OC1OC(=O)C(Br)=C1Br (stereo not drawn) [Compound 3a, 3,4-Dibromo-5-(tert-butyldimethylsilyloxy)-furan-2(5H)-one] |  |  |  |  |  | 135 ± 6 | 135 ± 6.1 | 142 ± 23.1 | failed to induce apoptosis | 88.7 ± 8.2 | 186 ± 14.2 | 21.4 ± 3.4 | 1.4 | 1.3 ± 0.12 | 23.4 ± 6.6 | 6.05 | 196 ± 5.4 | 
CC[Si](CC)(CC)OC1OC(=O)C(Br)=C1Br (stereo not drawn) [Compound 3d, 3,4-Dibromo-5-(trietylsilyloxy)-furan-2(5H)-one] |  |  |  |  |  |  |  | 8.1 ± 1.2 |  |  | 89 | 4.4 ± 0.4 | 1.6 ± 0.4 |  | 4.7 ± 0.1 | 1.72 |  | 89.2 ± 6
